# Results reported in patent US20250297028A1, “TREATMENT OF RENAL CANCER USING A COMBINATION OF AN ANTI-PD-1 ANTIBODY AND ANOTHER ANTI-CANCER AGENT” (BRISTOL-MYERS SQUIBB COMPANY, priority 2014, published 2025).
# Like-named read-outs stand apart in the source and are kept apart here.
# Columns and labels:
# [1] = tested on: renal cell carcinoma (RCC); conditions: cited from earlier work; for OS (overall survival): phase 3, poor-risk patients with advanced RCC (Hudes et al., 2007)
# [2] = tested on: tumor-infiltrating immune cells in Renca tumors; assay: Immune cell infiltration of Renca tumors (immunohistochemistry, flow cytometry); assay type: in vivo, mouse; conditions: versus control group
# Protocol: Immunohistochemistry and flow cytometry analyses were used to assess immune cell infiltration of tumors.
# Frozen sections were fixed in an acetone/methanol mix and rinsed in phosphate-buffered saline (PBS). Sections were blocked for endogenous peroxidase and the primary antibodies (anti-CD8, anti-CD4, anti-FoxP3, and anti-PD-L1) were added and incubated overnight. Chromogenic development was done using a brown polymer-based detection system (Biocare Medical), with hematoxylin used as a blue counter stain for visualization of cellular nuclei.
# Tumor-infiltrating immune cells were isolated and prepared as a single-cell suspension, then stained and analyzed via flow cytometry for expression of T-cell subsets (regulatory and activated) and myeloid cells (i.e., for expression of CD3, CD4, CD8, FoxP3, CD25, and CD69).
# [3] = tested on: murine renal carcinoma (Renca) tumor; assay: Efficacy study in Renca murine RCC tumor model; assay type: in vivo, mouse; conditions: for % TGI (tumor growth inhibition) / Objective Responses (ORs): 33 days after implantation; for % TGI (tumor growth inhibition): sunitinib 120 mg/kg QD×14 PO, sorafenib 200 mg/kg QD×14 PO, 4H2 10 mg/kg Q4D×4 IP; for Objective Responses (ORs): responders/8 mice
# From the text: Female 8-12 weeks old Balb/c and C57/BL6 mice (Harlan Laboratories, Federick, MD) were used in all studies. Mice were housed in sterile microisolator cages and administered sterile food and water ad libitum, unless otherwise specified.
# The murine renal carcinoma (Renca) and murine colon adenocarcinoma (CT-26) tumor cell lines were maintained in vitro for less than 10 passages.
# Tumor cells were implanted subcutaneously (SC). When the mean tumor volume reached about 100 mm^3, mice were randomized into groups of 8 animals. Vehicle (control), sunitinib (120 mg/kg) or sorafenib (200 mg/kg) was orally administered once daily for 14 days (QD×14, PO). MAb 4H2 was administered at 10 mg/kg every 4 days for a total of 4 treatments (Q4D×4) intraperitoneally (IP). Tumors were measured twice weekly, and the tumor volume was calculated as length×(width^2/2).
# [4] = dosing up to 10 mg/kg every two weeks; cited from earlier work
# PD-1 = molecular target: T1, PD-1 (Homo sapiens, UniProt Q15116); conditions: 15 subjects, 0.3 to 10 mg/kg, across all doses; cited from earlier work
# T1 construct: indicate that PD-1 occupancy appears to be dose-independent in this dose range; endogenous in cells
# T1 sequence (Q15116 25-288): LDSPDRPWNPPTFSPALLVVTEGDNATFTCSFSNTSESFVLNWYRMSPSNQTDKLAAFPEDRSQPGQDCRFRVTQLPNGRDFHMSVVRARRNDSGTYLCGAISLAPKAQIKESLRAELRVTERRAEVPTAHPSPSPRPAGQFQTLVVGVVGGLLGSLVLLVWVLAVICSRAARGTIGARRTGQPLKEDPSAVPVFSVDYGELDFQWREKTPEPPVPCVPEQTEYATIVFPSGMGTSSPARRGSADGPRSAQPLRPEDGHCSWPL
compound,measurement,setting,value
CO[C@H]1C[C@@H]2CC[C@@H](C)[C@@](O)(O2)C(=O)C(=O)N2CCCC[C@H]2C(=O)O[C@H]([C@H](C)C[C@@H]2CC[C@@H](OCCO)[C@H](OC)C2)CC(=O)[C@H](C)/C=C(\C)[C@@H](O)[C@@H](OC)C(=O)[C@H](C)C[C@H](C)/C=C/C=C/C=C/1C [Everolimus],improvement in median progression-free survival (PFS) versus placebo,"[1]; Motzer et al., 2008",2.1 month
same,OS improvement,"[1]; versus placebo (Motzer et al., 2008)",no OS improvement
CNC(=O)c1cc(Oc2ccc(NC(=O)Nc3ccc(Cl)c(C(F)(F)F)c3)cc2)ccn1 [Sorafenib],infiltration of CD4+ and CD8+ T cells into tumor (IHC),[2],increased T-cell infiltration into the tumor was not observed
same,response rate,"[1]; randomized Phase 2, 128 treatment-naïve mRCC subjects (Procopio et al., 2011)",15%
same,% TGI (tumor growth inhibition),[3],62%
same,activity as monotherapy in Renca model,[3]; monotherapy,active
same,Objective Responses (ORs),[3],0/8
CCN(CC)CCNC(=O)c1c(C)[nH]c(/C=C2\C(=O)Nc3ccc(F)cc32)c1C [Sunitinib],% TGI (tumor growth inhibition),[3],85%
same,Objective Responses (ORs),[3],0/8
CO[C@H]1C[C@@H]2CC[C@@H](C)[C@@](O)(O2)C(=O)C(=O)N2CCCC[C@H]2C(=O)O[C@H]([C@H](C)C[C@@H]2CC[C@@H](OC(=O)C(C)(CO)CO)[C@H](OC)C2)CC(=O)[C@H](C)/C=C(\C)[C@@H](O)[C@@H](OC)C(=O)[C@H](C)C[C@H](C)/C=C/C=C/C=C/1C [temsirolimus],OS (overall survival),[1],10.9 months
IFNα,OS (overall survival),[1],7.3 months
"ipilimumab: fully human, IgG1 monoclonal Ab that blocks the binding of CTLA-4 to its B7 ligands",ORR,"[1]; Phase 2 metastatic RCC, cohort A: 3 mg/kg loading dose then 1 mg/kg every 3 wk (Yang et al., 2007)",5%
same,ORR,"[1]; Phase 2 metastatic RCC, cohort B: 3 mg/kg every 3 wk for all doses (Yang et al., 2007)",12.5%
nivolumab,ORR,"[1]; 0.3 mg/kg, Phase 2 metastatic RCC (Motzer et al., 2014)",20%
same,ORR,"[1]; 0.3 mg/kg, pretreated with 1-3 prior anti-angiogenic therapies (Choueiri et al., 2014)",9%
same,ORR,"[1]; 2 mg/kg, Phase 2 metastatic RCC (Motzer et al., 2014)",22%
same,ORR,"[1]; 2 mg/kg, pretreated with 1-3 prior anti-angiogenic therapies (Choueiri et al., 2014)",23%
same,ORR,"[1]; 10 mg/kg, Phase 2 metastatic RCC (Motzer et al., 2014)",20%
same,ORR,"[1]; 10 mg/kg, pretreated with 1-3 prior anti-angiogenic therapies (Choueiri et al., 2014)",22%
same,ORR,"[1]; 10 mg/kg, treatment-naïve patients (Choueiri et al., 2014)",13%
same,ORR,"[1]; nivolumab 1 or 10 mg/kg alone, RCC, Phase 1 (WO 2013/173223)",28-31%
same,"maximum tolerated dose (MTD), monotherapy",[4],without reaching the maximum tolerated does (MTD)
same,mean PD-1 occupancy rate,PD-1,85%
same,mean plateau PD-1 occupancy,PD-1,72%
